Measured values reported in US11485736B2 (KSQ Therapeutics, Inc., priority 2018, dated 2022).
Where two headings read alike, the source gives them in different places. One block for each compound: values may come before it.

Legend:
[1] = target: USP1/UAF1 (Homo sapiens (Human), UniProt O94782); experiment: Deubiquitination assay for USP1/UAF1 activity (ubiquitin-rhodamine 110); format: biochemical; conditions: 0.05 nM USP1/UAF1, 150 nM ubiquitin-rhodamine
Procedure: Certain Compounds of the Disclosure were assessed for USP1/UAF1 activity in a Ubiquitin Rhodamine assay modified from those described previously.
Deubiquitinase activity was measured using ubiquitin-rhodamine 110 as a substrate. Cleavage of the amide bond between rhodamine and the c-terminal glycine of ubiquitin yields an increase in fluorescence signal. The assay was conducted in 20 ul total volume of assay buffer (50 mM Tris-HCl, pH 7.8, 0.5 mM EDTA, 0.01% Bovine Serum Albumin, 1 mM DTT, 0.01% Tween-20), and 0.05 nM USP1/UAF1 enzyme.
Compounds, dissolved in DMSO were tested in dose response format, beginning at 10 uM.
Compounds depicted below were added to enzyme/assay buffer mix and incubated 10 min.
Data for all assay formats was calculated as percent inhibition compared with control wells. […] IC50 values were calculated using the standard four parameter curve fitting algorithm in either Prism GraphPad (La Jolla, Calif.) software, or Collaborative Drug Discovery (Burlingame, Calif.) CDD Vault.

[2] = ADME solubility determination at pH 2.0 and pH 7.4; format: physicochemical; conditions: aqueous buffer, thermodynamic from solid, LC-MS/MS
Summary of the method: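 Dried residues of 10 mM DMSO stocks were shaken in PBS pH 7.4 or pH 2.0 for 24 hours at 25° C. and 1,100 rpm. After centrifugation, supernatants were quantified by LC-MS/MS against a standard of known concentration, applying a dilution factor.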

[3] = Liver microsomal stability, rat liver microsomes; format: in vitro ADME; conditions: 1 μM compound, NADPH, read-out: t1/2 (min) in RLM
Summary of the method: (§1)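 Compound (1 μM final) was incubated with prewarmed human or rat liver microsomes (1 mg/mL in 100 mM phosphate master mix) plus NADPH; aliquots at 0.5–30 minutes were quenched in cold acetonitrile and quantified by LC-MS/MS. Half-life came from the ln(% remaining) versus time slope, converted to CLint (μL/min/mg prot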

[4] = Liver microsomal stability, human liver microsomes; format: in vitro ADME; conditions: 1 μM compound, NADPH, read-out: t1/2 (min) in HLM
Summary of the method: as §1

[5] = PBS pH 2.0, shaken at 25° C. for 24 hours, read-out: Solubility at pH 2.0
[6] = PBS pH 7.4, shaken at 25° C. for 24 hours, read-out: Solubility at pH 7.4

Chain of USP1/UAF1 (O94782 whole entry): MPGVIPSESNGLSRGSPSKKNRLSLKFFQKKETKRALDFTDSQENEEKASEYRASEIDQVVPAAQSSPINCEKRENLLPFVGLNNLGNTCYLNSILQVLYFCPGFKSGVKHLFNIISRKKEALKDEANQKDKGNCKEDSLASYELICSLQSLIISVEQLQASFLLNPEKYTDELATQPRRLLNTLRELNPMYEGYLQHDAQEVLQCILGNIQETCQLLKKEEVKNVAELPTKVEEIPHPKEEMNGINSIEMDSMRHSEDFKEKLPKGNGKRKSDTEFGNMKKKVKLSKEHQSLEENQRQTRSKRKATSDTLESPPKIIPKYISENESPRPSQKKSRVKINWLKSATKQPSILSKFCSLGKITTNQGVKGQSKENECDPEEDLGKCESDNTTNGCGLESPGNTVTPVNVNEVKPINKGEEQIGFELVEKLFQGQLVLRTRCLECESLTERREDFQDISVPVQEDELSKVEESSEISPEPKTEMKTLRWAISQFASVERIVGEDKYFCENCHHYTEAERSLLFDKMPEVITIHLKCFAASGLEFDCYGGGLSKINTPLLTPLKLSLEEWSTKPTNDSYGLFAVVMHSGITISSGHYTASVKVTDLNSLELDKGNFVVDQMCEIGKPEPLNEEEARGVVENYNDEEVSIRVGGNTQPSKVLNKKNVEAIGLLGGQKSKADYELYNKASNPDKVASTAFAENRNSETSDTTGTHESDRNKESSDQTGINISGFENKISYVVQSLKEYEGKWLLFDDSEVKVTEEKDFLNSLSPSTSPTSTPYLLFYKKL
Chain of USP1/UAF1 (Q8TAF3 whole entry partner): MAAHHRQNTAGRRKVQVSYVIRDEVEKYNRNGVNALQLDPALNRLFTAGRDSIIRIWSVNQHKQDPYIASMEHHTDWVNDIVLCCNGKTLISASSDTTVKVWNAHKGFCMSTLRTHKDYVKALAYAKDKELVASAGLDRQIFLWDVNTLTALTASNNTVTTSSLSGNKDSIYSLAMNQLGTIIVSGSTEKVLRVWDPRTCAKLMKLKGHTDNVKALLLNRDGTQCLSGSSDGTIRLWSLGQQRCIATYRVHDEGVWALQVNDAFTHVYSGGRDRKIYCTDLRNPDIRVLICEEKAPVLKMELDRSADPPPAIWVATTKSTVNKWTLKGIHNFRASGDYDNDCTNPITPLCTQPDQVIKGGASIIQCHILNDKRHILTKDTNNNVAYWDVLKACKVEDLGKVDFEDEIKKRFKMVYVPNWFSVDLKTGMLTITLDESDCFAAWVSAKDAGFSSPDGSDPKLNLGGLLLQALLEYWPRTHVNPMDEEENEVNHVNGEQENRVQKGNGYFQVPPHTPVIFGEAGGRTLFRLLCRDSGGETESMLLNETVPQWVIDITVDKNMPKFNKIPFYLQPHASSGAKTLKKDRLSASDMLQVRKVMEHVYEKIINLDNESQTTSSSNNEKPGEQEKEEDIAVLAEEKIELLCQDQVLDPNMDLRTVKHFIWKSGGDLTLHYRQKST

SMILES: CCc1nc2cnc(-c3c(OC)ncnc3C3CC3)nc2n1Cc1ccc(-c2nc(C(F)(F)F)cn2C(C)C)cc1 [drawing 808]
- IC50 ([1]; Table 4): 10 to 100 nM

SMILES: COc1ncnc(C2CC2)c1-c1ncc2cnn(Cc3ccc(-n4nc(C(F)(F)F)cc4OC)cc3)c2n1 [drawing 737]
- IC50 ([1]; Table 3): 10 to 100 nM

SMILES: CCn1cc(C(F)(F)F)nc1-c1ccc(Cn2nc(OC)c3cnc(-c4c(OC)ncnc4C4CC4)nc32)cc1F [drawing 817]
- IC50 ([1]; Table 4): 10 to 100 nM

SMILES: CCn1cc(C(F)(F)F)nc1-c1ccc([C@@H](C)n2ncc3cnc(-c4c(OC)ncnc4C4CCC4)nc32)cc1 (single isomer, unassigned) [drawing 742]
- IC50 ([1]; Table 3): 10 to 100 nM

SMILES: COc1ncnc(C2CC2)c1-c1ncc2cnn(Cc3ccc(-n4nc(C(F)F)cc4C)cc3)c2n1 [drawing 762]
- IC50 ([1]; Table 3): 10 to 100 nM

SMILES: CC(C)c1ccccc1-c1ncc2cnn(C(C)c3ccc(-c4nc(C(F)(F)F)cn4C)cc3)c2n1 (stereo not drawn) [drawing 726]
- IC50 ([1]; Table 2): < 10 nM

SMILES: COc1ncnc(C)c1-c1ncc2ncn(Cc3ccc(-n4nc(C(F)(F)F)cc4C)cc3)c2n1
- IC50 ([1]; Table 4): > 200 nM

SMILES: CC(C)c1ccccc1-c1ncc2ncn(Cc3ccc(-c4nc(C(F)(F)F)cn4C)cc3)c2n1 [drawing 719]
- IC50 ([1]; Table 2): 10 to 100 nM

SMILES: Cc1cc(C(F)(F)F)nn1-c1ccc(Cn2ncc3cnc(-c4ccccc4C(C)C)nc32)cc1 [drawing 716]
- IC50 ([1]; Table 2): 10 to 100 nM

SMILES: CCn1cc(C(F)(F)F)nc1-c1ccc(Cn2nc(OC3CCC3)c3cnc(-c4c(OC)ncnc4C4CC4)nc32)cc1 [drawing 806]
- IC50 ([1]; Table 4): 10 to 100 nM

SMILES: COCCOc1ncnc(C2CC2)c1-c1ncc2cnn(Cc3ccc(-n4nc(C(F)(F)F)cc4C)cc3)c2n1 [drawing 781]
- IC50 ([1]; Table 3): 100 to 200 nM

SMILES: CCn1cc(C(F)(F)F)nc1-c1ccc(Cn2ncc3cnc(-c4c(C5CC5)cnn4CC)nc32)cc1 [drawing 771]
- IC50 ([1]; Table 3): 10 to 100 nM

SMILES: Cc1cc(C(F)F)nn1-c1ccc(Cn2ncc3cnc(-c4cccnc4C(C)C)nc32)cc1 [drawing 710]
- IC50 ([1]; Table 2): 10 to 100 nM

SMILES: CC(C)c1ccccc1-c1ncc2cnn(Cc3ccc(-c4nc(C(F)(F)F)cn4C4CN(C)C4)cc3)c2n1 [drawing 725]
- IC50 ([1]; Table 2): < 10 nM

SMILES: CC(C)c1ccccc1-c1ncc2ncn(Cc3ccc(-c4nc(C(F)(F)F)cn4C)cc3)c2n1 [drawing 832]
- IC50 ([1]; Table 4): 10 to 100 nM

SMILES: Cc1cnn(C(C)C)c1-c1ncc2cnn(Cc3ccc(-n4nc(C(F)(F)F)cc4C)cc3)c2n1 [drawing 734]
- IC50 ([1]; Table 3): < 10 nM

SMILES: CCn1cc(C(F)(F)F)nc1-c1ccc([C@@H](C)n2ncc3cnc(-c4c(OC)ncnc4C4CC4)nc32)cc1 (single isomer, unassigned) [drawing 747]
- IC50 ([1]; Table 3): 10 to 100 nM

SMILES: Cn1cc(C(F)(F)F)nc1-c1ccc(Cn2ncc3cnc(-c4ccccc4S(C)(=O)=O)nc32)cc1 [drawing 707]
- IC50 ([1]; Table 2): 100 to 200 nM

SMILES: CC(C)c1ccccc1-c1ncc2ncn(Cc3ccc(-c4nc(C(F)(F)F)cn4C)cc3)c2n1 [Example 202, 2-(2-Isopropylphenyl)-9-(4-(1-methyl-4-(trifluoromethyl)-1H-imidazol-2-yl)benzyl)-9H-purine]
- solubility at 24 h [2, 5]: > 10 µM
- solubility at 24 h [2, 6]: < 10 µM
- half-life at 1 μM [3]: < 25 min
- half-life at 1 μM [4]: < 25 min

SMILES: COc1ncnc(C2CC2)c1-c1nc(OC)c2cnn(Cc3ccc(-n4nc(C(F)(F)F)cc4C)cc3)c2n1 [Example 28]
- solubility at 24 h [2, 5]: < 10 µM
- solubility at 24 h [2, 6]: < 10 µM
- half-life at 1 μM [3]: > 25 min
- half-life at 1 μM [4]: > 25 min

SMILES: CCn1cc(C(F)(F)F)nc1-c1ccc([C@@H](C)n2ncc3cnc(-c4c(OC)ncnc4OC)nc32)cc1 [Example 89]
- solubility at 24 h [2, 5]: > 10 µM
- solubility at 24 h [2, 6]: > 10 µM
- half-life at 1 μM [3]: > 25 min
- half-life at 1 μM [4]: > 25 min

SMILES: COc1ncnc(C2CC2)c1-c1ncc2nc(C(C)C)n(Cc3ccc(-c4nc(C(F)(F)F)cn4C(C)C)cc3)c2n1 [Example 208]
- solubility at 24 h [2, 5]: < 10 µM
- solubility at 24 h [2, 6]: < 10 µM
- half-life at 1 μM [3]: > 25 min
- half-life at 1 μM [4]: > 25 min

The next lines start with the values.

- IC50 ([1]; Table 3): 10 to 100 nM
SMILES: CCn1cc(C(F)(F)F)nc1-c1ccc(Cn2ncc3cnc(-c4c(OC)ncnc4C4CC4)nc32)cc1 [drawing 738]

- IC50 ([1]; Table 3): 100 to 200 nM
SMILES: Cn1cc(C(F)(F)F)nc1-c1ccc(Cn2ncc3cnc(-c4c(OC5CCOC5)ncnc4C4CC4)nc32)cc1 (stereo not drawn)

- IC50 ([1]; Table 2): 10 to 100 nM
SMILES: COc1ncnc(C2CC2)c1-c1ncc2cnn(Cc3ccc(-c4nc(C(F)(F)F)cn4C)cc3)c2n1 [drawing 720]

- IC50 ([1]; Table 3): > 200 nM
SMILES: COc1ncnc(C2CC2)c1-c1ncc2cnn(Cc3ccc(-c4nc(C(F)(F)F)cn4CC(=O)N(C)C)cc3)c2n1

- IC50 ([1]; Table 3): 10 to 100 nM
SMILES: COc1ncnc(C2CC2)c1-c1ncc2cnn([C@H](C)c3ccc(-c4nc(C(F)(F)F)cn4C)cc3)c2n1 (single isomer, unassigned) [drawing 759]

- IC50 ([1]; Table 3): 10 to 100 nM
SMILES: COc1ncnc(C(C)(C)C)c1-c1ncc2cnn(Cc3ccc(-c4nc(C(F)(F)F)cn4C)cc3)c2n1 [drawing 757]

- IC50 ([1]; Table 3): 10 to 100 nM
SMILES: COc1ncnc(C2CC2)c1-c1ncc2cnn(Cc3ccc(-c4cn(C)c(C(F)(F)F)n4)cc3)c2n1 [drawing 736]

- IC50 ([1]; Table 3): 10 to 100 nM
SMILES: [2H]C([2H])([2H])n1cc(C(F)(F)F)nc1-c1ccc(Cn2ncc3cnc(-c4c(OC)ncnc4C4CC4)nc32)cc1

- IC50 ([1]; Table 3): 10 to 100 nM
SMILES: COc1ncnc(C2CC2)c1-c1ncc2cnn([C@@H](C)c3ccc(-c4nc(C(F)(F)F)cn4C)cc3)c2n1 (single isomer, unassigned) [drawing 743]

- IC50 ([1]; Table 2): < 10 nM
SMILES: COc1cccc(C2CC2)c1-c1ncc2cnn(Cc3ccc(-c4nc(C(F)(F)F)cn4C)cc3)c2n1 [drawing 724]

- IC50 ([1]; Table 3): 10 to 100 nM
SMILES: CCn1cc(C(F)(F)F)nc1-c1ccc(Cn2ncc3cnc(-c4c(OC(C)(C)C)ncnc4C4CC4)nc32)cc1 [drawing 740]

- IC50 ([1]; Table 3): 10 to 100 nM
SMILES: COc1ncnc(C2CC2)c1-c1ncc2cnn(Cc3ccc(-c4nc(C(F)(F)F)cn4C4COC4)cc3)c2n1 [drawing 770]

- solubility at 24 h [2, 5]: > 10 µM
- solubility at 24 h [2, 6]: > 10 µM
- half-life at 1 μM [3]: < 25 min
- half-life at 1 μM [4]: < 25 min
SMILES: COc1nc(C)nc(C2CC2)c1-c1ncc2cnn(Cc3ccc(-c4nc(C(F)(F)F)cn4C)cc3)c2n1 [Example 133, 6-(4-Cyclopropyl-6-methoxy-2-methylpyrimidin-5-yl)-1-(4-(1-methyl-4-(trifluoromethyl)-1H-imidazol-2-yl)benzyl)-1H-pyrazolo[3,4-d]pyrimidine]

- solubility at 24 h [2, 5]: > 10 µM
- solubility at 24 h [2, 6]: < 10 µM
- half-life at 1 μM [3]: < 25 min
- half-life at 1 μM [4]: < 25 min
SMILES: COc1ncnc(C2CC2)c1-c1ncc2ccn(Cc3ccc(-c4nc(C(F)(F)F)cn4C)cc3)c2n1 [Example 201, 2-(4-cyclopropyl-6-methoxypyrimidin-5-yl)-7-(4-(1-methyl-4-(trifluoromethyl)-1H-imidazol-2-yl)benzyl)-7H-pyrrolo[2,3-d]pyrimidine]

- solubility at 24 h [2, 5]: > 10 µM
- solubility at 24 h [2, 6]: > 10 µM
- half-life at 1 μM [3]: < 25 min
- half-life at 1 μM [4]: > 25 min
SMILES: COc1ncnc(C2CC2)c1-c1ncc2cnn(Cc3ccc(-c4nc(C(F)(F)F)cn4C4COC4)cc3)c2n1 [Example 145]

- solubility at 24 h [2, 5]: > 10 µM
- solubility at 24 h [2, 6]: > 10 µM
- half-life at 1 μM [3]: > 25 min
- half-life at 1 μM [4]: > 25 min
SMILES: COc1ncnc(OC)c1-c1ncc2cnn(Cc3ccc(-c4nc(C(F)(F)F)cn4C)cc3)c2n1 [Example 86]

- solubility at 24 h [2, 5]: < 10 µM
- solubility at 24 h [2, 6]: < 10 µM
- half-life at 1 μM [3]: > 25 min
- half-life at 1 μM [4]: > 25 min
SMILES: COc1ncnc(C2CC2)c1-c1ncc2cnn(Cc3ccc(-c4nc(C(F)(F)F)cn4C4CC4)cc3)c2n1 [Example 154, 1-(4-(1-Cyclopropyl-4-(trifluoromethyl)-1H-imidazol-2-yl)benzyl)-6-(4-cyclopropyl-6-methoxypyrimidin-5-yl)-1H-pyrazolo[3,4-d]pyrimidine]
